According to patent publication US8623924B2, “Compositions and methods for modulating metabolic pathways” (Nusirt Sciences, Inc., priority 2011, dated 2014):
Marks after values point to notes of the source that are not given here.

How the values were obtained:
Adipocytes (3T3-L1) = assay: Fatty acid oxidation (3H-palmitate) in 3T3-L1 adipocytes; assay type: cell-based; settings: leucine 0.5 mM, resveratrol 200 nM
Method: High glucose medium reduced fatty acid oxidation by 46% (p<0.05).
Fatty acid oxidation was measured using ^3H-labeled palmitate oxidation, with the ^3H label trapped as water as a result of the fat oxidation. The ^3H was then measured via scintillation counter.

[1] = Body weight, weight gain and visceral adiposity in diet-induced obese mice; assay type: in vivo; settings: 6 weeks on diet
From the text: (§1) Six week old male c57/BL6 mice were fed a high-fat diet with fat increased to 45% of energy (Research Diets D12451) for 6 weeks to induce obesity.
(§2) At the of the treatment period (6 weeks) all animals were humanely euthanized, and blood and tissues collected for further experiments.

[2] = MicroPET/CT glucose and palmitate uptake in diet-induced obese mice; assay type: in vivo; settings: 6 weeks on diet
From the text: as §1
MicroPET/CT (Glucose and Palmitate Uptake): At the end of the treatment period (6 weeks of treatment) subgroups of each treatment diet group (5 animals/group, 35 animals total) were used to measure whole body glucose and palmitate uptake via PET/CT Imaging. To visualize these compounds using microPET imaging, the glucose or palmitate was labeled with fluorine-18 (108 mins half life) or carbon-11 (20 mins half life), respectively. Each mouse was fasted for 4 hours, then anesthetized using 1-3% isoflurane delivered by nose cone or in a mouse-sized induction chamber purpose-built for small animal imaging protocols. While under anesthesia the mice were injected iv with <2 mCi of each tracer, then be left for a period of time (minutes to up ˜1 hour) to allow the uptake of the tracer. During the scan, mice were kept warm using a thermostatically controlled heated bed and were treated with ophthalmic ointment prior to scanning. Following the live scan the mice were returned to their cage and revived. Mice were monitored constantly during this time. Following live data acquisition the mice were sacrificed by isoflurane overdose and organs harvested for further experiments.

[3] = Oxygen consumption/substrate utilization (metabolic chambers) in diet-induced obese mice; assay type: in vivo
Method: as §1
Oxygen Consumption/Substrate Utilization: at the end of the obesity induction period (day 0 of treatment group) and at 2 weeks and 6 weeks of treatment, oxygen consumption and substrate utilization was measured via metabolic chambers using the Comprehensive Lab Animal Monitoring Systems (CLAMS, Columbus Instruments, Columbus, Ohio) in subgroups of each treatment group. Each animal was placed in individual cages without bedding that allow automated, non-invasive data collection. Each cage is an indirect open circuit calorimeter that provides measurement of oxygen consumption, carbon dioxide production, and concurrent measurement of food intake. All mice were acclimatized to the chambers for 24 hours prior to the experiment and maintained under the regular 12:12 light:dark cycle with free access to water and food. All experiments were started in the morning and data were collected for 24 hours. Each chamber was passed with 0.6 l of air/min and was sampled for 2 min at 32-minute intervals. Exhaust O2 and CO2 content from each chamber was compared with ambient O2 and CO2 content. Food consumption was measured by electronic scales.

[4] = Indices of insulin sensitivity (plasma glucose, insulin, HOMAIR) in diet-induced obese mice; assay type: in vivo; settings: 6 weeks on diet; for Glucose (mM) / Insulin (μU/mL): plasma
From the text: Insulin sensitivity can be measured using a variety of techniques, including HOMAIR. HOMAIR, which is the homeostasis model assessment of insulin resistance can be used as a screening index of changes in insulin sensitivity. HOMAIR can be calculated via standard formula from fasting plasma insulin and glucose as follows: HOMAIR=[Insulin (uU/mL)×glucose (mM)]/22.5.
as §1, §2

C-reactive protein = assay: Inflammatory biomarker C-reactive protein in diet-induced obese mice; assay type: in vivo; settings: 6 weeks on diet
IL-6 = assay: Inflammatory biomarker IL-6 in diet-induced obese mice; assay type: in vivo; settings: 6 weeks on diet
MCP-1 = assay: Inflammatory biomarker MCP-1 in diet-induced obese mice; assay type: in vivo; settings: 6 weeks on diet
Adiponectin = Adiponectin in diet-induced obese mice; assay type: in vivo; settings: 6 weeks on diet
Sirt1 [5] = molecular target: T1, Sirt1 (Mus musculus, UniProt Q923E4); assay: Adipose tissue Sirt1 activity in diet-induced obese mice; assay type: in vivo
T1 construct: from tissue; host or cells: adipose tissue of c57/BL6 mice
T1 sequence (Q923E4 1-737): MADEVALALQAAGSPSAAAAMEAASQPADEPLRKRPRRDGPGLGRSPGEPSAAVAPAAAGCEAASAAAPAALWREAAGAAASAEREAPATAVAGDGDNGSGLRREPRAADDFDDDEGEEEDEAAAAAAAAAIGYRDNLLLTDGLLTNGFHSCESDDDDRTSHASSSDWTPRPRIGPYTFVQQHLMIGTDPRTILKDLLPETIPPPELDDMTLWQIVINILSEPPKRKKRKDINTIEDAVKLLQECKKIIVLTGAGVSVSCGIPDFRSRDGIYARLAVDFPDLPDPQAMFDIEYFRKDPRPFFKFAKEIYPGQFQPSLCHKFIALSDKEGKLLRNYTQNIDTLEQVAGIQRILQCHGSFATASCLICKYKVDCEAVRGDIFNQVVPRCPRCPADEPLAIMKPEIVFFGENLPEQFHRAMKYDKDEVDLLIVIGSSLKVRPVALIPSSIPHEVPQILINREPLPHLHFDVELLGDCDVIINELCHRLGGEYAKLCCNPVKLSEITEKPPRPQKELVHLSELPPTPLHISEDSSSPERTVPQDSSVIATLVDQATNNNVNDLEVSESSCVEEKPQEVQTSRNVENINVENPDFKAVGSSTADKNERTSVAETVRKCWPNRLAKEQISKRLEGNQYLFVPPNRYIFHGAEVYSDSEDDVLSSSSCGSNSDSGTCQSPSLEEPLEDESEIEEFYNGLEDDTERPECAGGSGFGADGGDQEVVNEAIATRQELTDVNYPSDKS

SIRT1 [6] = assay: Sirt1 activity (fluorimetric kit), Example 5; assay type: cell-based; settings: leucine 0.5 mM, HMB 5 μM, resveratrol 200 nM; summary in Example 5
Method: Sirt1 Activity: SIRT1 activity was measured by using the SIRT1 Fluorimetric Drug Discovery Kit (BML-AK555, ENZO Life Sciences International, Inc. PA, USA). The assay measures SIRT1 activity by the degree of deacetylation of a standardized substrate containing an acetylated lysine side chain. The substrate utilized is a peptide containing […] of human […]]), an established target of SIRT1 activity; SIRT1 activity is directly proportional to the degree of deacetylation of […]. Samples were incubated with peptide substrate (25 μM), and NAD^+ (500 μM) in a phosphate-buffered saline solution at 37° C. on a horizontal shaker for 45 minutes. The reaction was stopped with the addition of 2 mM nicotinamide and a developing solution that binds to the deacetylated lysine to form a fluorophore.

irisin = assay: Plasma irisin in diet-induced obese mice; assay type: in vivo; settings: six weeks, resveratrol 12.5 mg/kg diet, leucine 2.42%
Method: as §1
As described in Example 5, C2C12 myotubes treated with the indicated combinations of compounds were used to produce conditioned media, with which 3T3-L1 adipocytes were then treated. Fatty acid oxidation was measured as in Example 5. Irisin levels were measured by Western blot and ELISA, both in conditioned media and in plasma from mice treated according to Example 4.
ELISA: Irisin was also detected in C2C12 incubation media from treated cells and in mouse plasma using a commercial enzyme immunoassay kit obtained from Phoenix Pharmaceuticals, Inc. (Burlingame, Calif.). This kit uses an irisin (FNDC5 [16-127] fragment) and streptavidin-horseradish peroxidase detection on a microplate reader at 450 nm.

UCP1 = assay: Subcutaneous adipose UCP1 mRNA expression in diet-induced obese mice; assay type: in vivo; settings: six weeks, resveratrol 12.5 mg/kg diet
[7] = high resveratrol 225 mg/kg diet
[8] = low resveratrol 12.5 mg/kg diet, low HMB 2 g CaHMB/kg diet, high HMB 10 g CaHMB/kg diet, leucine 2.42% of diet

## Oc1ccc(/C=C/c2cc(O)cc(O)c2)cc1 [resveratrol, 3,5,4′-Trihydroxy-trans-stilbene]
Adipocytes (3T3-L1); high (25 mM) glucose, 4 hours, HMB 5 uM, vs. control
  increase in fatty acid oxidation, high glucose: no effect
Adipocytes (3T3-L1); HMB 5 μM, summary in Example 5
  stimulation of fatty acid oxidation: no effect
[1]; [7]
  Visceral Adipose Volume (mm^3): 6031 ± 323^a mm^3
  Weight (g): 38.7 ± 1.2^a g
  Weight gain (g): 22.3 ± 2.4^a g
[1]; [8]
  Visceral Adipose Volume (mm^3): 6551 ± 575^a mm^3
  Weight (g): 40.8 ± 2.5^a g
  Weight gain (g): 20.9 ± 1.5^a g
[2]; [7]
  Fat oxidation (PET palmitate uptake; Muscle SUV): 2.29 ± 0.11^b SUV
  Muscle Glucose Uptake (18F-deoxyglucose SUV): 3.87 ± 0.32^a SUV
[2]; [8]
  Fat oxidation (PET palmitate uptake; Muscle SUV): 1.51 ± 0.44^a SUV
  Muscle Glucose Uptake (18F-deoxyglucose SUV): 3.63 ± 1.29^a SUV
[3]; [7]
  Heat Production: 0.552 ± 0.015^b
[3]; [8]
  Heat Production: 0.517 ± 0.014^a
[4]; [7]
  HOMAIR: 0.59 ± 0.26^b
  Glucose (mM): 5.14 ± 0.75^a mM
  Insulin (μU/mL): 10.1 ± 2.7^a μU/mL
[4]; [8]
  HOMAIR: 2.41 ± 0.66^a
  Glucose (mM): 5.14 ± 0.85^a mM
  Insulin (μU/mL): 10.4 ± 1.6^a μU/mL
C-reactive protein; [7]
  C-reactive protein (ng/mL): 123.9 ± 35.3^a ng/mL
C-reactive protein; [8]
  C-reactive protein (ng/mL): 134.8 ± 8.5^a ng/mL
IL-6; [7]
  IL-6 (pg/mL): 14.1 ± 1.3^b pg/mL
IL-6; [8]
  IL-6 (pg/mL): 23.2 ± 2.9^a pg/mL
MCP-1; [7]
  MCP-1 (pg/mL): 27.3 ± 6.8^b pg/mL
MCP-1; [8]
  MCP-1 (pg/mL): 104.4 ± 16.5^a pg/mL
Adiponectin; [7]
  Adiponectin (ng/mL): 14.8 ± 1.8^b ng/mL
Adiponectin; [8]
  Adiponectin: 12.4 ± 1.1 ng/mL
Sirt1 [5]; high dose resveratrol (FIG. 10)
  adipose tissue Sirt1 activity: non-significant trend towards an increase
Sirt1 [5]; low dose of resveratrol, HMB, or their combinations with HMB or leucine (FIG. 10)
  adipose tissue Sirt1 activity: Neither resveratrol nor HMB exerted significant independent effects
SIRT1 [6]
  stimulation of Sirt1 activity: no effect
irisin
  increase in plasma irisin: no independent effect
UCP1
  increase in UCP1 expression in white subcutaneous adipose tissue: no independent effect
